Experimental data reported in ChEMBL document CHEMBL1909294, “Translating clinical findings into knowledge in drug safety evaluation--drug induced liver injury prediction system (DILIps)” (PLoS Comput Biol, 2011).

Columns and labels:
[1] = tested on: Hepatotoxicity;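 on HepSE Combined Scores: combined hepatic side effect score as listed in the training data of the Drug Induced Liver Injury Prediction System (DILIps)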;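 on HepSE cirrhosis: cirrhosis hepatic side effect score taken from the DILIps (drug-induced liver injury prediction) training set; call rule not given here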;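 on HepSE elevated liver function tests: hepatic side effect score for raised liver function tests, as recorded in the DILIps training set used for predicting drug-induced liver injury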; on HepSE hepatic failure: call rule not given here;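 on HepSE hepatic necrosis: score of hepatic side effects for hepatic necrosis, drawn from the training data of DILIps, a prediction system for drug-induced liver injury; call rule not given here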;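 on HepSE jaundice: Jaundice-related hepatic side-effect score drawn from the training data of the DILIps (drug-induced liver injury prediction system); call rule not given here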; on HepSE liver disease: call rule not given here
[2] = tested on: Hepatotoxicity; remark: listed apart in the source;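 on HepSE Combined Scores: combined hepatic side effect score as listed in the training data of the Drug Induced Liver Injury Prediction System (DILIps)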;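 on HepSE cirrhosis: cirrhosis hepatic side effect score taken from the DILIps (drug-induced liver injury prediction) training set; call rule not given here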;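 on HepSE elevated liver function tests: hepatic side effect score for raised liver function tests, as recorded in the DILIps training set used for predicting drug-induced liver injury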; on HepSE hepatic failure: call rule not given here;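 on HepSE hepatic necrosis: score of hepatic side effects for hepatic necrosis, drawn from the training data of DILIps, a prediction system for drug-induced liver injury; call rule not given here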;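 on HepSE jaundice: Jaundice-related hepatic side-effect score drawn from the training data of the DILIps (drug-induced liver injury prediction system); call rule not given here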; on HepSE liver disease: call rule not given here
[3] = tested on: Hepatotoxicity; remark: listed apart in the source;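 on HepSE Combined Scores: combined hepatic side effect score as listed in the training data of the Drug Induced Liver Injury Prediction System (DILIps)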;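 on HepSE cirrhosis: cirrhosis hepatic side effect score taken from the DILIps (drug-induced liver injury prediction) training set; call rule not given here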;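 on HepSE elevated liver function tests: hepatic side effect score for raised liver function tests, as recorded in the DILIps training set used for predicting drug-induced liver injury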; on HepSE hepatic failure: call rule not given here;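 on HepSE hepatic necrosis: score of hepatic side effects for hepatic necrosis, drawn from the training data of DILIps, a prediction system for drug-induced liver injury; call rule not given here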;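 on HepSE jaundice: Jaundice-related hepatic side-effect score drawn from the training data of the DILIps (drug-induced liver injury prediction system); call rule not given here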; on HepSE liver disease: call rule not given here
[4] = tested on: Hepatotoxicity; remark: listed apart in the source;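 on HepSE Combined Scores: combined hepatic side effect score as listed in the training data of the Drug Induced Liver Injury Prediction System (DILIps)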;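 on HepSE cirrhosis: cirrhosis hepatic side effect score taken from the DILIps (drug-induced liver injury prediction) training set; call rule not given here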;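 on HepSE elevated liver function tests: hepatic side effect score for raised liver function tests, as recorded in the DILIps training set used for predicting drug-induced liver injury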; on HepSE hepatic failure: call rule not given here;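 on HepSE hepatic necrosis: score of hepatic side effects for hepatic necrosis, drawn from the training data of DILIps, a prediction system for drug-induced liver injury; call rule not given here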;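 on HepSE jaundice: Jaundice-related hepatic side-effect score drawn from the training data of the DILIps (drug-induced liver injury prediction system); call rule not given here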; on HepSE liver disease: call rule not given here
[5] = tested on: Hepatotoxicity; remark: listed apart in the source; on HepSE hepatic failure: call rule not given here; on HepSE liver disease: call rule not given here
[6] = tested on: Hepatotoxicity; remark: listed apart in the source; on HepSE hepatic failure: call rule not given here; on HepSE liver disease: call rule not given here
[7] = tested on: Hepatotoxicity; remark: listed apart in the source
[8] = tested on: Hepatotoxicity; remark: listed apart in the source
[9] = tested on: Hepatotoxicity; remark: listed apart in the source
[10] = tested on: Hepatotoxicity; remark: listed apart in the source
[11] = tested on: Hepatotoxicity; remark: listed apart in the source
[12] = tested on: Hepatotoxicity; remark: listed apart in the source
[13] = tested on: Hepatotoxicity; remark: listed apart in the source
[14] = tested on: Hepatotoxicity; remark: listed apart in the source

| Molecule | HepSE_hepatic necrosis [1] | HepSE_liver disease [2] | HepSE_Combined Scores [3] | HepSE_hepatic failure [4] | HepSE_hepatitis [5] | HepSE_elevated liver function tests [6] | HepSE_cirrhosis [7] | HepSE_bilirubinemia [8] | HepSE_jaundice [9] | HepSE_hepatomegaly [10] | HepSE_liver fatty [11] | HepSE_cholecystitis [12] | HepSE_cholelithiasis [13] | HepSE_liver function tests abnormal [14] | also measured |
| --- | --- | --- | --- | --- | --- | --- | --- | --- | --- | --- | --- | --- | --- | --- | --- |
| CC(C)/N=c1\cc2n(-c3ccc(Cl)cc3)c3ccccc3nc-2cc1Nc1ccc(Cl)cc1 [CLOFAZIMINE] | 0 | 0 | 3 | 0 | 1 | 0 | 0 | 0 | 1 | 1 | 0 | 0 | 0 | 0 |  |
| N[C@@H](C(=O)N[C@@H]1C(=O)N2C(C(=O)O)=C(Cl)CS[C@H]12)c1ccccc1 [CEFACLOR ANHYDROUS] | 0 | 0 | 2 | 0 | 1 | 0 | 0 | 0 | 1 | 0 | 0 | 0 | 0 | 0 |  |
| O=S(=O)(OC[C@H]1O[C@@H](O[C@]2(COS(=O)(=O)[O][Al]([OH])[OH])O[C@H](OS(=O)(=O)[O][Al]([OH])[OH])[C@@H](OS(=O)(=O)[O][Al]([OH])[OH])[C@@H]2OS(=O)(=O)[O][Al]([OH])[OH])[C@H](OS(=O)(=O)[O][Al]([OH])[OH])[C@@H](OS(=O)(=O)[O][Al]([OH])[OH])[C@@H]1OS(=O)(=O)[O][Al]([OH])[OH])[O][Al]([OH])[OH].[OH][Al]([OH])[OH].[OH][Al]([OH])[OH].[OH][Al]([OH])[OH].[OH][Al]([OH])[OH].[OH][Al]([OH])[OH].[OH][Al]([OH])[OH].[OH][Al]([OH])[OH].[OH][Al]([OH])[OH] | 0 | 0 | 0 | 0 | 0 | 0 | 0 | 0 | 0 | 0 | 0 | 0 | 0 | 0 |  |
| VERTEPORFIN | 0 | 0 | 1 | 0 | 0 | 1 | 0 | 0 | 0 | 0 | 0 | 0 | 0 | 0 |  |
| BLEOMYCIN | 0 | 0 | 0 | 0 | 0 | 0 | 0 | 0 | 0 | 0 | 0 | 0 | 0 | 0 |  |
| [H]/N=C(\N/C(=N/[H])NCCCCCCNC(=N)NC(=N)Nc1ccc(Cl)cc1)Nc1ccc(Cl)cc1 [CHLORHEXIDINE] | 0 | 0 | 0 | 0 | 0 | 0 | 0 | 0 | 0 | 0 | 0 | 0 | 0 | 0 |  |
| CN1CCN2c3ncccc3Cc3ccccc3C2C1 (stereo not drawn) [MIRTAZAPINE] | 0 | 0 | 3 | 0 | 0 | 0 | 1 | 0 | 0 | 0 | 0 | 1 | 0 | 1 |  |
| Cc1ncc2n1-c1ccc(Cl)cc1C(c1ccccc1F)=NC2 [MIDAZOLAM] | 0 | 0 | 0 | 0 | 0 | 0 | 0 | 0 | 0 | 0 | 0 | 0 | 0 | 0 |  |
| Sc1ncnc2nc[nH]c12 [MERCAPTOPURINE ANHYDROUS] |  |  |  |  |  |  |  |  |  |  |  |  |  |  | HepSE_hepatic necrosis ([1]; Liver): 0; HepSE_liver disease ([2]; Liver): 0; HepSE_Combined Scores ([3]; Liver): 0; HepSE_hepatic failure ([4]; Liver): 0; HepSE_hepatitis ([5]; Liver): 0; HepSE_elevated liver function tests ([6]; Liver): 0; HepSE_cirrhosis ([7]; Liver): 0; HepSE_bilirubinemia ([8]; Liver): 0; HepSE_jaundice ([9]; Liver): 0; HepSE_hepatomegaly ([10]; Liver): 0; HepSE_liver fatty ([11]; Liver): 0; HepSE_cholecystitis ([12]; Liver): 0; HepSE_cholelithiasis ([13]; Liver): 0; HepSE_liver function tests abnormal ([14]; Liver): 0 |
| Clc1cccc(Cl)c1N=C1NCCN1 [CLONIDINE] |  |  |  |  |  |  |  |  |  |  |  |  |  |  | HepSE_hepatic necrosis ([1]; Liver): 0; HepSE_liver disease ([2]; Liver): 0; HepSE_Combined Scores ([3]; Liver): 1; HepSE_hepatic failure ([4]; Liver): 0; HepSE_hepatitis ([5]; Liver): 1; HepSE_elevated liver function tests ([6]; Liver): 0; HepSE_cirrhosis ([7]; Liver): 0; HepSE_bilirubinemia ([8]; Liver): 0; HepSE_jaundice ([9]; Liver): 0; HepSE_hepatomegaly ([10]; Liver): 0; HepSE_liver fatty ([11]; Liver): 0; HepSE_cholecystitis ([12]; Liver): 0; HepSE_cholelithiasis ([13]; Liver): 0; HepSE_liver function tests abnormal ([14]; Liver): 0 |
| Nc1nc2c(ncn2CCC(CO)CO)c(=O)[nH]1 [PENCICLOVIR] | 0 | 0 | 0 | 0 | 0 | 0 | 0 | 0 | 0 | 0 | 0 | 0 | 0 | 0 |  |
| CN1CCN(CCCN2c3ccccc3Sc3ccc(C(F)(F)F)cc32)CC1 [TRIFLUOPERAZINE] | 0 | 0 | 1 | 0 | 0 | 0 | 0 | 0 | 1 | 0 | 0 | 0 | 0 | 0 |  |
